Like-named read-outs stand apart in the source and are kept apart here.
Columns and labels:
[1] = Phase I study APG-115-US-001 (NCT02935907): safety; format: in vivo
Method: This Phase I study (APG-115-US-001) was designed to assess safety, toxicity, pharmacokinetics (PK), pharmacodynamics (PD), and antitumor activity of APG-115 orally in patients with advanced solid tumors in US (NCT02935907).
For Safety study of APG-115, the safety evaluation included vital signs, electrocardiogram (ECG) parameters, Easter Cooperative Oncology Group (ECOG) performance status data, clinical laboratory tests and adverse event data. Safety assessments were performed in each treatment cycle.
Single dose escalation study was conducted. A standard “3+3” design was employed to determine the maximum tolerated dose (MTD) of APG-115 by assessing the dose limiting toxicity (DLT) of APG-115. […] of APG-115 was tested: 10, 20, 50, 100, 200, and 300 mg. APG-115 was administrated orally every other day (QOD) for a consecutive 3 weeks (i.e. dosed at Day 1, 3, 5, 7, 9, 11, 13, 15, 17, 19, and 21), with one week dosing off as 4-weeks a cycle. […] The scheme of the trial design is provided below.

[2] = Phase I study APG-115-US-001: pharmacokinetics (LC/MS/MS, K2EDTA human plasma); format: in vivo; settings: dose range of 20-300 mg
Method: For PK study of APG-115, APG-115 in K2EDTA human plasma was determined using an LC/MS/MS method using D5-APG-115 as the internal standard (IS). APG-115 and the IS were extracted using protein precipitation extraction from human plasma. […] MS/MS detection was set at mass transitions of m/z 642.3→246.3 for APG-115 and m/z 647.4→246.1 for D5-APG-115 (IS) in TIS positive mode.

[3] = tested on: tumor infiltrating cells in MC38 tumors; experiment: TIL analysis by flow cytometry, p53mut MC38 tumors; format: in vivo
Method: The live/dead fixable dye (Invitrogen) was used to exclude dead cells. The FOXP3 kit from eBioscience was used for FOXP3 staining. Cells were washed and stained for 30 min on ice with indicated antibodies in MACS buffer or Brilliant staining buffer. Samples were than analyzed on Life Technology Attune NxT flow cytometer.

clinical = experiment: clinical; design: species or system human; settings: in vivo
Method: Patients with advanced soft tissue sarcoma (STS), adenoid cystic carcinoma (ACC) or other solid tumors in China (CTR20170975) were treated with APG-115. In dose escalation, patients received APG-115 (100-200 mg) orally QOD for first 21 days of a 28-day cycle, until disease progression. Study objectives include safety (primary endpoint), pharmacokinetics (PK), pharmacodynamics (PD), and antitumor activity assessed every 8 weeks.
This is a Phase I study (CTR20170975) is designed to assess the safety, dose-limiting toxicities (DLT), the maximum tolerated dose (MTD)/recommended phase 2 dose (RP2D), pharmacokinetics (PK), pharmacodynamics (PD) profile and anti-tumor activity of orally administered APG-115 in Chinese patients with advanced soft tissue sarcoma and other solid tumors.

[4] = Pharmacokinetic (PK) analysis in MH-22A tumor-bearing mice (LC/MS/MS); format: in vivo, mouse; settings: for concentration at 4 h: oral
Method: The quantitative LC/MS/MS analysis was conducted using an Exion HPLC system (AB Sciex, Ontario, Canada) coupled to an API 5500 mass spectrometer (AB Sciex, Ontario, Canada) equipped with an API electrospray ionization (ESI) source. The Phenomenex Titank phenyl-Hexyl column (50 mm×2.1 mm, 5 μm particle size) was used to achieved HPLC separation. The injection volume was 2 μl and the flow rate was kept constantly at 0.5 ml/min. Chromatography was performed with mobile phase A, acetonitrile:water:formic (5:95:0.1, by volume) and B, acetonitrile:water:formic (95:5:0.1, by volume). The mass spectrometer was operated at ESI positive ion mode for APG-115 while ESI negative mode for epacadostat. The detection of the ions was performed in the multiple reaction monitoring (MRM) mode, monitoring the transition of m/z 642.0→246.1 and 271.1→172.0 for APG-115 and IS (tolbutamide) in positive mode, 435.9→338.8 and 269.2→169.2 for epacadostat and IS (tolbutamide) in negative mode, respectively. Compounds parameters, declustering potential (DP), collision energy (CE) were 51, 61 V, 80, 18 V for APG-115 and IS in positive mode, −61, −15 V and −90, −23.5 V for epacadostat and IS in negative mode, respectively.
Blood and tumor samples were collected from 5 mice/group in group-1, group-2, group-3 and group-5 4 hrs after the final dose on […]. Blood samples were collected from 5 mice/group in group-4, group-6, group-7 and group-8 4 hrs after the final dose on d29. Approximately 100 μl blood were collected in EDTA-2K tube and 50 μl plasma were collected for PK analysis. All samples were stored at −80° C. until analysis.
In efficacy study of Example 2.1, mice in vehicle, APG-115 10 mg/kg and 50 mg/kg, and epacadostat single-agent groups were euthanized on d15 as described above. To assess PK characteristics of APG-115 and epacadostat in this study, plasma and tissue samples were collected 4 h after the last dosing on d15.

For `CCN1[C@@H](C(=O)NC23CCC(C(=O)O)(CC2)CC3)[C@H](c2cccc(Cl)c2F)[C@]2(C(=O)Nc3cc(Cl)ccc32)C12CCCCC2` [APG-115], the “MTD/RP2D of APG-115 monotherapy” value ([1]; QOD 3 weeks on, 1 week off) was 100 mg, the “pts discontinued treatment: Adverse Event” value ([1]; human, in vivo) was 3 and the “DLTs observed during cycle 1” value ([1]; in vivo) was “Four”. The “events determined as DLTs” value ([1]; in vivo) was “Platelet count decreased, fatigue, and nausea”, the “patients with Absolute neutrophil count decreased (less than 1.00×10^3/uL) after C2D21” value ([1]; in vivo) was “three patients” and the “AUC and Cmax versus dose” value [2] was “generally increase dose proportionally”. For the same compound, the “CD4+ T cells, NK cells, MDSCs, and regulatory T (Treg) cells” value [3] was “no significant changes”, the Tmax (clinical; human) was 4 to 6 h and the “AUC and Cmax versus dose” value (clinical) was “generally increase dose proportionally”. For the same compound, the “Cmax and AUC0-t versus dose” value (clinical; po) was “approximately dose proportional increase”, the “increases in systemic exposure and tissue distribution with dose” value ([4]; 10 vs 50 mg/kg) was “approximately dose proportional” and the “pharmacokinetic interaction with anti-PD-1 antibody” value ([4]; mouse, in vivo) was “no apparent pharmacokinetic interaction”. It also gave a concentration at 4 h ([4]; mouse, plasma, 10 mg/kg, 10 mg/kg daily oral for 15 days, single agent, 4 h after last dosing, read-out: plasma concentration of APG-115) of 157 ng/mL, a concentration at 4 h ([4]; mouse, plasma, 10 mg/kg, 10 mg/kg in combination with anti-PD-1, read-out: plasma concentration of APG-115) of 120 ng/mL and a concentration at 4 h ([4]; mouse, plasma, 50 mg/kg, 50 mg/kg daily oral for 15 days, single agent, 4 h after last dosing, read-out: plasma concentration of APG-115) of 1230 ng/mL. For the same compound, the concentration at 4 h ([4]; mouse, plasma, 50 mg/kg, 50 mg/kg in combination with anti-PD-1, read-out: plasma concentration of APG-115) was 2150 ng/mL, the concentration at 4 h ([4]; mouse, tumor, 10 mg/kg, 10 mg/kg as single agent, read-out: APG-115 concentration in tumor tissues) was 152 ng/g and the concentration at 4 h ([4]; mouse, tumor, 50 mg/kg, 50 mg/kg as single agent, read-out: APG-115 concentration in tumor tissues) was 1470 ng/g.

From US12268665B2, “Combination of immunotherapies with MDM2 inhibitors” (ASCENTAGE PHARMA (SUZHOU) CO., LTD., priority 2018, dated 2025)
